# According to patent US7022667B2, “O-derivatized nocathiacin derivatives” (Bristol-Myers Squibb Company, priority 2002, dated 2006):
# Columns and labels:
# Assay in all cases: MIC, broth micro dilution assay (NCCLS)
# Assay type in all cases: cell-based
# [1] = tested on: Enterococcus faecalis A20688; details: Mueller-Hinton medium, 35° C., 18 hours
# Procedure, shortened: (§1)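 Broth microdilution in Mueller-Hinton medium, with a final inoculum of about 5×10^5 cfu/well. Plates incubated at 35 °C for 18 hours in ambient air. MIC = lowest drug concentration preventing visible growth.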
# [2] = tested on: Streptococcus pneumoniae A28272; details: 50% Mueller-Hinton medium and 50% Todd Hewitt medium, 35° C., 18 hours
# [3] = tested on: Staphylococcus aureus A15090; details: Mueller-Hinton medium, 35° C., 18 hours
# Procedure, shortened: as §1
SMILES,MIC (μg/mL) Enterococcus faecalis A20688 [1],MIC (μg/mL) Streptococcus pneumoniae A28272 [2],MIC (μg/mL) Staphylococcus aureus A15090 [3]
C=C(NC(=O)c1csc(-c2nc3c(cc2O)-c2nc(cs2)C(=O)NC(C(C)O)C(=O)NC(=C(C)OC)c2nc(cs2)C(=O)NC2c4nc(cs4)C(=O)NC(COC(=O)c4c5c6c(cccc6n4OCCCOC4OC(CO)C(O)C(O)C4O)COC(=O)C(OC4CC(C)(O)C(N(C)C)C(C)O4)C2OC5)c2nc-3cs2)n1)C(N)=O (stereo not drawn) [Example 58],>128 µg/mL,0.06 µg/mL,16 µg/mL
COC(C)=C1NC(=O)C(C(C)O)NC(=O)c2csc(n2)-c2cc(O)c(-c3nc(C(N)=O)cs3)nc2-c2csc(n2)C2COC(=O)c3c4c5c(cccc5n3OCCCCS(=O)(=O)O)COC(=O)C(OC3CC(C)(O)C(N(C)C)C(C)O3)C(OC4)C(NC(=O)c3csc1n3)c1nc(cs1)C(=O)N2 (stereo not drawn) [Example 59],>128 µg/mL,0.5 µg/mL,16 µg/mL
C=C(NC(=O)c1csc(-c2nc3c(cc2O)-c2nc(cs2)C(=O)NC(C(C)O)C(=O)NC(=C(C)OC)c2nc(cs2)C(=O)NC2c4nc(cs4)C(=O)NC(COC(=O)c4c5c6c(cccc6n4OC(=O)NC)COC(=O)C(OC4CC(C)(O)C(N(C)C)C(C)O4)C2OC5)c2nc-3cs2)n1)C(N)=O (stereo not drawn) [Example 60],0.06 µg/mL,0.001 µg/mL,0.125 µg/mL
C=C(NC(=O)c1csc(-c2nc3c(cc2O)-c2nc(cs2)C(=O)NC(C(C)O)C(=O)NC(=C(C)OC)c2nc(cs2)C(=O)NC2c4nc(cs4)C(=O)NC(COC(=O)c4c5c6c(cccc6n4OC(=O)N(C)CCO)COC(=O)C(OC4CC(C)(O)C(N(C)C)C(C)O4)C2OC5)c2nc-3cs2)n1)C(N)=O (stereo not drawn) [Example 61],0.03 µg/mL,0.0005 µg/mL,0.03 µg/mL
C=C(NC(=O)c1csc(-c2nc3c(cc2O)-c2nc(cs2)C(=O)NC(C(C)O)C(=O)NC(=C(C)OC)c2nc(cs2)C(=O)NC2c4nc(cs4)C(=O)NC(COC(=O)c4c5c6c(cccc6n4OC(=O)NCCOCCOCCOCCOC)COC(=O)C(OC4CC(C)(O)C(N(C)C)C(C)O4)C2OC5)c2nc-3cs2)n1)C(N)=O (stereo not drawn) [Example 62],0.125 µg/mL,0.015 µg/mL,0.125 µg/mL
C=C(NC(=O)c1csc(-c2nc3c(cc2O)-c2nc(cs2)C(=O)NC(C(C)O)C(=O)NC(=C(C)OC)c2nc(cs2)C(=O)NC2c4nc(cs4)C(=O)NC(COC(=O)c4c5c6c(cccc6n4OS(=O)(=O)[O-])COC(=O)C(OC4CC(C)(O)C(N(C)C)C(C)O4)C2OC5)c2nc-3cs2)n1)C(N)=O.[Na+] (stereo not drawn) [Example 64],0.125 µg/mL,0.06 µg/mL,1.0 µg/mL
C=C(NC(=O)c1csc(-c2nc3c(cc2O)-c2nc(cs2)C(=O)NC(C(C)O)C(=O)NC(=C(C)OC)c2nc(cs2)C(=O)NC2c4nc(cs4)C(=O)NC(COC(=O)c4c5c6c(cccc6n4OP(=O)(O)OCCCl)COC(=O)C(OC4CC(C)(O)C(N(C)C)C(C)O4)C2OC5)c2nc-3cs2)n1)C(N)=O (stereo not drawn) [Example 65],0.5 µg/mL,0.03 µg/mL,0.25 µg/mL
C=C(NC(=O)c1csc(-c2nc3c(cc2OCc2ccccc2)-c2nc(cs2)C(=O)NC(C(C)O)C(=O)NC(=C(C)OC)c2nc(cs2)C(=O)NC2c4nc(cs4)C(=O)NC(COC(=O)c4c5c6c(cccc6n4OCc4ccccc4)COC(=O)C(OC4CC(C)(O)C(N(C)C)C(C)O4)C2OC5)c2nc-3cs2)n1)C(N)=O (stereo not drawn) [Example 66],0.25 µg/mL,0.001 µg/mL,2.0 µg/mL
C=C(NC(=O)c1csc(-c2nc3c(cc2OCCCS(=O)(=O)[O-])-c2nc(cs2)C(=O)NC(C(C)O)C(=O)NC(=C(C)OC)c2nc(cs2)C(=O)NC2c4nc(cs4)C(=O)NC(COC(=O)c4c5c6c(cccc6n4OCCCS(=O)(=O)[O-])COC(=O)C(OC4CC(C)(O)C(N(C)C)C(C)O4)C2OC5)c2nc-3cs2)n1)C(N)=O.[Na+].[Na+] (stereo not drawn) [Example 67],128 µg/mL,0.5 µg/mL,>128 µg/mL
C=C(NC(=O)c1csc(-c2nc3c(cc2OCC(=O)OC(C)(C)C)-c2nc(cs2)C(=O)NC(C(C)O)C(=O)NC(=C(C)OC)c2nc(cs2)C(=O)NC2c4nc(cs4)C(=O)NC(COC(=O)c4c5c6c(cccc6n4OCC(=O)OC(C)(C)C)COC(=O)C(OC4CC(C)(O)C(N(C)C)C(C)O4)C2OC5)c2nc-3cs2)n1)C(N)=O (stereo not drawn) [Example 68],4.0 µg/mL,0.007 µg/mL,8.0 µg/mL
C=C(NC(=O)c1csc(-c2nc3c(cc2OCC(=O)NCCNC(=O)OC(C)(C)C)-c2nc(cs2)C(=O)NC(C(C)O)C(=O)NC(=C(C)OC)c2nc(cs2)C(=O)NC2c4nc(cs4)C(=O)NC(COC(=O)c4c5c6c(cccc6n4OCC(=O)NCCNC(=O)OC(C)(C)C)COC(=O)C(OC4CC(C)(O)C(N(C)C)C(C)O4)C2OC5)c2nc-3cs2)n1)C(N)=O (stereo not drawn) [Example 69],64 µg/mL,0.25 µg/mL,16 µg/mL
C=C(NC(=O)c1csc(-c2nc3c(cc2OCC(=O)NCC#N)-c2nc(cs2)C(=O)NC(C(C)O)C(=O)NC(=C(C)OC)c2nc(cs2)C(=O)NC2c4nc(cs4)C(=O)NC(COC(=O)c4c5c6c(cccc6n4OCC(=O)NCC#N)COC(=O)C(OC4CC(C)(O)C(N(C)C)C(C)O4)C2OC5)c2nc-3cs2)n1)C(N)=O (stereo not drawn) [Example 70],0.5 µg/mL,0.06 µg/mL,4.0 µg/mL
C=C(NC(=O)c1csc(-c2nc3c(cc2OCC(=O)N(C)C)-c2nc(cs2)C(=O)NC(C(C)O)C(=O)NC(=C(C)OC)c2nc(cs2)C(=O)NC2c4nc(cs4)C(=O)NC(COC(=O)c4c5c6c(cccc6n4OCC(=O)N(C)C)COC(=O)C(OC4CC(C)(O)C(N(C)C)C(C)O4)C2OC5)c2nc-3cs2)n1)C(N)=O (stereo not drawn) [Example 71],4.0 µg/mL,0.125 µg/mL,8.0 µg/mL
C=C(NC(=O)c1csc(-c2nc3c(cc2OCC(=O)OCCO)-c2nc(cs2)C(=O)NC(C(C)O)C(=O)NC(=C(C)OC)c2nc(cs2)C(=O)NC2c4nc(cs4)C(=O)NC(COC(=O)c4c5c6c(cccc6n4OCC(=O)OCCO)COC(=O)C(OC4CC(C)(O)C(N(C)C)C(C)O4)C2OC5)c2nc-3cs2)n1)C(N)=O (stereo not drawn) [Example 72],4.0 µg/mL,0.06 µg/mL,4.0 µg/mL
C=C(NC(=O)c1csc(-c2nc3c(cc2OCOP(=O)(OC(C)(C)C)OC(C)(C)C)-c2nc(cs2)C(=O)NC(C(C)O)C(=O)NC(=C(C)OC)c2nc(cs2)C(=O)NC2c4nc(cs4)C(=O)NC(COC(=O)c4c5c6c(cccc6n4OCOP(=O)(OC(C)(C)C)OC(C)(C)C)COC(=O)C(OC4CC(C)(O)C(N(C)C)C(C)O4)C2OC5)c2nc-3cs2)n1)C(N)=O (stereo not drawn) [Example 73],2.0 µg/mL,0.25 µg/mL,2.0 µg/mL
C=CCOc1cc2c(nc1-c1nc(C(=O)NC(=C)C(N)=O)cs1)-c1csc(n1)C1COC(=O)c3c4c5c(cccc5n3OCC=C)COC(=O)C(OC3CC(C)(O)C(N(C)C)C(C)O3)C(OC4)C(NC(=O)c3csc(n3)C(=C(C)OC)NC(=O)C(C(C)O)NC(=O)c3csc-2n3)c2nc(cs2)C(=O)N1 (stereo not drawn) [Example 74],0.25 µg/mL,0.0005 µg/mL,0.06 µg/mL
C#CCOc1cc2c(nc1-c1nc(C(=O)NC(=C)C(N)=O)cs1)-c1csc(n1)C1COC(=O)c3c4c5c(cccc5n3OCC#C)COC(=O)C(OC3CC(C)(O)C(N(C)C)C(C)O3)C(OC4)C(NC(=O)c3csc(n3)C(=C(C)OC)NC(=O)C(C(C)O)NC(=O)c3csc-2n3)c2nc(cs2)C(=O)N1 (stereo not drawn) [Example 75],0.06 µg/mL,0.0005 µg/mL,0.03 µg/mL
C=C(NC(=O)c1csc(-c2nc3c(cc2OCCO)-c2nc(cs2)C(=O)NC(C(C)O)C(=O)NC(=C(C)OC)c2nc(cs2)C(=O)NC2c4nc(cs4)C(=O)NC(COC(=O)c4c5c6c(cccc6n4OCCO)COC(=O)C(OC4CC(C)(O)C(N(C)C)C(C)O4)C2OC5)c2nc-3cs2)n1)C(N)=O (stereo not drawn) [Example 77],1.0 µg/mL,0.03 µg/mL,0.5 µg/mL
C=C(NC(=O)c1csc(-c2nc3c(cc2OCC(N)=O)-c2nc(cs2)C(=O)NC(C(C)O)C(=O)NC(=C(C)OC)c2nc(cs2)C(=O)NC2c4nc(cs4)C(=O)NC(COC(=O)c4c5c6c(cccc6n4OCOCC[Si](C)(C)C)COC(=O)C(OC4CC(C)(O)C(N(C)C)C(C)O4)C2OC5)c2nc-3cs2)n1)C(N)=O (stereo not drawn) [Example 78],16 µg/mL,0.06 µg/mL,64 µg/mL
